{"source": "patent US20130344180A1", "about": "“WEIGHT LOSS AND SATIATION COMPOSITION” (YL HOLDINGS, INC., priority 2012, published 2013)", "origin": "cited, not measured here", "key": {"[1]": {"details": "mice and rats"}, "[2]": {"system": "prostate gland tumors", "details": "various strains of rats"}, "[3]": {"system": "cellular metabolism", "details": "by increasing cellular metabolism"}, "[4]": {"system": "E1, E2, and E3 isozymes of retinaldehyde dehydrogenase (Raldh)"}, "[5]": {"details": "mice and rats", "remark": "listed apart in the source"}, "[6]": {"target": "PPARγ (Homo sapiens, UniProt P37231)", "sequence (P37231 whole entry, species assumed)": "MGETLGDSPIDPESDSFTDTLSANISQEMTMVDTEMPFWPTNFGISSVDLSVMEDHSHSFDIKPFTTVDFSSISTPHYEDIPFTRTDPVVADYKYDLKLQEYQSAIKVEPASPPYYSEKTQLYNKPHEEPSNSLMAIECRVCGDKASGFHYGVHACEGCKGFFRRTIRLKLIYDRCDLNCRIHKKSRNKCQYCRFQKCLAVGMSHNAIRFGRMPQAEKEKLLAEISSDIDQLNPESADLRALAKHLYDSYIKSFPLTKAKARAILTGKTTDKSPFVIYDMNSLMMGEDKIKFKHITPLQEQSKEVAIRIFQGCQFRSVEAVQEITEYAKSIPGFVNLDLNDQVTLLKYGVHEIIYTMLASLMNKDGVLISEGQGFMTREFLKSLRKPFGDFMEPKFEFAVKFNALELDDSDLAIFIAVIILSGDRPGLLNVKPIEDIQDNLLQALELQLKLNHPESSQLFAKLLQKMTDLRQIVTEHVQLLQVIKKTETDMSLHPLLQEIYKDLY"}, "[7]": {"details": "in vivo"}, "[8]": {"system": "adipocyte differentiation"}, "[9]": {"system": "fat cells in white adipose tissue", "details": "by increasing the expression of thermogenin"}}, "data": [{"compound": "CC(C)=CCCC(C)=CC=O", "note": "[Citral, 3,7-dimethyl-2,6-octadienal]", "values": [{"measurement": "toxicity", "setting": "[1]", "value": "non-toxic"}, {"measurement": "effect against prostate gland tumors", "setting": "[2]", "value": "effective"}, {"measurement": "thermogenic response", "setting": "[3]", "value": "provide thermogenic response"}, {"measurement": "inhibition of E1, E2, and E3 isozymes of retinaldehyde dehydrogenase (Raldh)", "setting": "[4]", "value": "competitively inhibits"}, {"measurement": "carcinogenic potential", "setting": "[5]", "value": "does not possess carcinogenic potential"}]}, {"compound": "CCCC\\C=C/C=C/C=C\\CCCCCCCC(=O)O", "note": "[punicic acid]", "values": [{"measurement": "ligand of PPARγ", "setting": "[6]", "value": "acts as a ligand"}, {"measurement": "high-fat-diet induced obesity and insulin resistance", "setting": "[7]", "value": "suppression"}, {"measurement": "adipocyte differentiation", "setting": "[8]", "value": "suppression"}]}, {"compound": "Fucoxanthin", "values": [{"measurement": "fat burning within fat cells", "setting": "[9]", "value": "promote fat burning"}]}]}
